According to the CheMixHub viscosity set:

Assay: xn = mol fraction of the nth substance listed

COC(=O)CC(C)=O + CCCCOC(C)=O
viscosity [mPa·s], 101.33 kPa
Conditions	x1 = 0.1019	x1 = 0.2013	x1 = 0.3015	x1 = 0.4035	x1 = 0.5006	x1 = 0.6004	x1 = 0.7005	x1 = 0.8087	x1 = 0.8989
298.15 K	0.719	0.768	0.826	0.895	0.969	1.055	1.163	1.289	1.407
303.15 K	0.672	0.716	0.768	0.83	0.896	0.973	1.068	1.181	1.284
308.15 K	0.629	0.669	0.717	0.774	0.832	0.901	0.987	1.085	1.179

COc1ccc(C=O)cc1 + CCCCOCCO
viscosity [mPa·s], 101 kPa
Conditions	x1 = 0.1088	x1 = 0.2154	x1 = 0.3201	x1 = 0.4227	x1 = 0.5234	x1 = 0.6223	x1 = 0.7193	x1 = 0.8146	x1 = 0.9081
303.15 K	2.197	2.089	2.055	2.09	2.191	2.354	2.575	2.852	3.18
308.15 K	2.107	2.006	1.963	1.973	2.035	2.145	2.3	2.499	2.738
313.15 K	1.984	1.912	1.881	1.888	1.932	2.01	2.121	2.262	2.432
318.15 K	1.836	1.786	1.766	1.773	1.806	1.865	1.947	2.051	2.175

CCCCCCCCn1cc[n+](C)c1.[Cl-] + CCCO
viscosity [mPa·s], 101 kPa
Conditions	x2 = 0.1071	x2 = 0.2407	x2 = 0.3036	x2 = 0.4887
298.15 K	7238	–	912	178.5
313.15 K	–	649	334.5	–

CCOC(C)=O + CCCO
viscosity [mPa·s], 101 kPa
Conditions	298.15 K	313.15 K
x1 = 0.046	1.597	1.158
x1 = 0.0998	1.337	0.987
x1 = 0.1992	1.007	–
x1 = 0.2966	0.802	–
x1 = 0.4052	0.694	–
x1 = 0.5009	0.601	–
x1 = 0.5421	0.576	0.482
x1 = 0.5948	0.558	0.466
x1 = 0.7034	0.509	–
x1 = 0.7964	0.475	–
x1 = 0.9033	0.448	–
x1 = 0.9542	0.45	–

COC(=O)CC(C)=O + CCCO
viscosity [mPa·s], 101.3 kPa
Conditions	x1 = 0.1028	x1 = 0.2021	x1 = 0.3067	x1 = 0.407	x1 = 0.5069	x1 = 0.609	x1 = 0.7057	x1 = 0.8054	x1 = 0.9036
298.15 K	1.497	1.333	1.253	1.221	1.219	1.238	1.278	1.339	1.501
303.15 K	1.337	1.213	1.128	1.102	1.104	1.123	1.163	1.217	1.295
308.15 K	1.198	1.096	1.024	1.003	1.007	1.027	1.062	1.114	1.183

CS(=O)(=O)[O-].C[N+](C)(CCO)CCO + CCCO
Conditions	viscosity [mPa·s]
298.15 K, 101.33 kPa, x1 = 0.8978	965

Clc1cccc(Cl)c1 + CCNc1ccccc1
viscosity [mPa·s], 101 kPa
Conditions	303.15 K	308.15 K
x2 = 0.0725	1.021	0.954
x2 = 0.1256	1.069	0.996
x2 = 0.1956	1.134	1.051
x2 = 0.2687	1.2	1.108
x2 = 0.3369	1.258	1.157
x2 = 0.4056	1.315	1.205
x2 = 0.4856	1.38	1.259
x2 = 0.5598	1.437	1.308
x2 = 0.6235	1.485	1.347
x2 = 0.6925	1.536	1.389
x2 = 0.7759	1.594	1.436
x2 = 0.8596	1.651	1.482
x2 = 0.9125	1.687	1.511

CCCCCCCCn1cc[n+](C)c1.[Cl-] + CCO
Conditions	viscosity [mPa·s]
298.15 K, 101 kPa, x2 = 0.1305	5426

CCOc1ccccc1 + CCO
298.15 K, 101 kPa
Conditions	viscosity [mPa·s]
x2 = 0.3183	1.067
x2 = 0.5186	1.035
x2 = 0.6605	1.01
x2 = 0.764	0.997
x2 = 0.8437	0.991
x2 = 0.9064	1
x2 = 0.9609	1.035

COC(=O)CC(C)=O + CCO
viscosity [mPa·s], 101.3 kPa
Conditions	x1 = 0.1051	x1 = 0.204	x1 = 0.3085	x1 = 0.4046	x1 = 0.507	x1 = 0.607	x1 = 0.7033	x1 = 0.8022	x1 = 0.902
298.15 K	0.96	0.942	0.965	0.995	1.057	1.121	1.202	1.3	1.422
303.15 K	0.879	0.866	0.883	0.913	0.968	1.027	1.099	1.187	1.294
308.15 K	0.806	0.798	0.814	0.841	0.892	0.946	1.011	1.092	1.186

CS(=O)(=O)[O-].C[N+](C)(CCO)CCO + CCO
Conditions	viscosity [mPa·s]
298.15 K, 101.33 kPa, x1 = 0.8954	947.5

OCC(O)CO + CCO
298.15 K, 101 kPa
Conditions	viscosity [mPa·s]
x1 = 0.053	1.52
x1 = 0.11	2.23
x1 = 0.18	3.49
x1 = 0.25	5.83
x1 = 0.33	10.4
x1 = 0.43	20.6
x1 = 0.54	45.3
x1 = 0.67	103.3
x1 = 0.82	254

COC(=O)CC(C)=O + CCOC(=O)c1ccccc1
viscosity [mPa·s], 101.33 kPa
Conditions	x1 = 0.0992	x1 = 0.2023	x1 = 0.3004	x1 = 0.399	x1 = 0.4991	x1 = 0.5978	x1 = 0.6966	x1 = 0.7979	x1 = 0.8986
298.15 K	1.834	1.796	1.757	1.729	1.7	1.653	1.633	1.598	1.583
303.15 K	1.661	1.627	1.593	1.571	1.543	1.501	1.484	1.452	1.44
308.15 K	1.514	1.484	1.453	1.434	1.408	1.373	1.356	1.328	1.316

COC(=O)CC(C)=O + CCOC(C)=O
viscosity [mPa·s], 101.33 kPa
Conditions	x1 = 0.0001	x1 = 0.1006	x1 = 0.1979	x1 = 0.2962	x1 = 0.3988	x1 = 0.4978	x1 = 0.5934	x1 = 0.6964	x1 = 0.7983	x1 = 0.9006
298.15 K	0.433	0.488	0.551	0.624	0.711	0.81	0.916	1.051	1.195	1.376
303.15 K	–	0.462	0.519	0.587	0.666	0.755	0.849	0.97	1.099	1.258
308.15 K	–	0.438	0.491	0.553	0.629	0.706	0.792	0.9	1.015	1.155

CCOc1ccccc1 + CCOCC
298.15 K, 101 kPa
Conditions	viscosity [mPa·s]
x2 = 0.0745	1.027
x2 = 0.0975	0.9993
x2 = 0.1855	0.8671
x2 = 0.2523	0.7856
x2 = 0.3026	0.7152
x2 = 0.3516	0.6667
x2 = 0.4501	0.5713
x2 = 0.5106	0.5154
x2 = 0.5579	0.4809
x2 = 0.6048	0.4406
x2 = 0.6882	0.3866
x2 = 0.7485	0.3494
x2 = 0.8303	0.3057
x2 = 0.9004	0.2674

COc1ccc(C=O)cc1 + CCOCCO
viscosity [mPa·s], 101 kPa
Conditions	x1 = 0.0825	x1 = 0.1683	x1 = 0.2576	x1 = 0.3506	x1 = 0.4474	x1 = 0.5484	x1 = 0.6539	x1 = 0.7641	x1 = 0.8793
303.15 K	1.521	1.534	1.586	1.682	1.828	2.03	2.294	2.629	3.044
308.15 K	1.459	1.483	1.535	1.618	1.735	1.891	2.09	2.338	2.641
313.15 K	1.33	1.371	1.431	1.512	1.617	1.749	1.912	2.108	2.342
318.15 K	1.251	1.294	1.351	1.423	1.513	1.623	1.755	1.911	2.096

CCCCCCCCn1cc[n+](C)c1.[Cl-] + CN1CCCC1=O
100 kPa
Conditions	viscosity [mPa·s]
293.15 K, x1 = 0.2805	26.15
308.15 K, x1 = 0.3657	33.55
308.15 K, x1 = 0.4679	67.15
318.15 K, x1 = 0.4679	43.25

OCC(O)CO + CN1CCCC1=O
101 kPa
Conditions	viscosity [mPa·s]
298 K, x2 = 0.078	418.4
298 K, x2 = 0.16	269.4
298 K, x2 = 0.338	72.84
298 K, x2 = 0.433	38.94
298 K, x2 = 0.534	20.42
298 K, x2 = 0.641	11.12
298 K, x2 = 0.754	4.23
298 K, x2 = 0.873	2.44
303 K, x2 = 0.078	289.9
303 K, x2 = 0.16	160.5
303 K, x2 = 0.336	55.93
303 K, x2 = 0.432	30.16
303 K, x2 = 0.533	17.83
303 K, x2 = 0.64	9.48
303 K, x2 = 0.753	3.75
303 K, x2 = 0.872	2.26
308 K, x2 = 0.077	211.3
308 K, x2 = 0.159	118.3
308 K, x2 = 0.335	43.4
308 K, x2 = 0.43	25.79
308 K, x2 = 0.531	15.16
308 K, x2 = 0.638	7.7
308 K, x2 = 0.751	3.27
308 K, x2 = 0.872	2.02
313 K, x2 = 0.077	143.4
313 K, x2 = 0.158	87.14
313 K, x2 = 0.334	35.17
313 K, x2 = 0.43	20.73
313 K, x2 = 0.53	10.45
313 K, x2 = 0.637	6.13
313 K, x2 = 0.751	2.91
313 K, x2 = 0.871	1.88
318 K, x2 = 0.077	106.1
318 K, x2 = 0.158	54.08
318 K, x2 = 0.334	25
318 K, x2 = 0.429	16.1
318 K, x2 = 0.53	9.03
318 K, x2 = 0.637	5.17
318 K, x2 = 0.75	2.68
318 K, x2 = 0.871	1.72
323 K, x2 = 0.077	83.45
323 K, x2 = 0.158	50.16
323 K, x2 = 0.334	21.33
323 K, x2 = 0.429	13.43
323 K, x2 = 0.53	7.11
323 K, x2 = 0.637	4.64
323 K, x2 = 0.75	2.46
323 K, x2 = 0.871	1.6
